Non-standard residues stand in square brackets, D forms with d. Residues, ends and D or L forms follow the SMILES beside them. *: point of attachment. X2 = NC(=O)OCCOCCOCCOCCOCCOCCOCCOCCOCCOCCOCCN*; X1 = NCCOCCOCCOCCOCCOCCOCCOCCOCCOCCOCCOC(=O)*; Hexanoyl = CCCCCC(=O)*; Ahx = NCCCCCC(=O)O
test system: S. aureus JAR; type: cell-based; settings: JAR, 2 h
Protocol: S. aureus JAR is described in Campoccia et al. (Int. J. Artif. Organs, 2008 September; 31(9):841-7).
For the in vitro killing assay with P10 variants, S. aureus JAR ([…] CFU/ml) were incubated for 2 hours at 37° C. with various concentrations of the peptides in PBS or in PBS/human plasma (1/1, v/v). […] The LC99.9 is the average value of two independent experiments.

SMILES | LC99.9 (μM) (50% plasma) [µM] | LC99.9 (μM) (PBS) [µM]
CC[C@H](C)[C@H](NC(=O)[C@H](CCCCN)NC(=O)[C@H](CCCCN)NC(=O)[C@H](Cc1ccc(O)cc1)NC(=O)[C@H](CCC(=O)O)NC(=O)[C@H](CCCNC(=N)N)NC(=O)[C@H](C)NC(=O)[C@H](CC(C)C)NC(C)=O)C(=O)N[C@H](C(=O)N[C@@H](CCC(=O)O)C(=O)N[C@@H](CCCCN)C(=O)N[C@@H](CC(C)C)C(=O)N[C@@H](CCCCN)C(=O)N[C@@H](CCCNC(=N)N)C(=O)N[C@@H](Cc1c[nH]c2ccccc12)C(=O)N[C@@H](CC(C)C)C(=O)N[C@@H](CCCNC(=N)N)C(=O)N[C@@H](CCC(N)=O)C(=O)N[C@H](C(=O)N[C@@H](CC(C)C)C(=O)N[C@@H](CCCNC(=N)N)C(=O)N[C@H](C(=O)N[C@@H](CC(C)C)C(=O)N[C@@H](CCCNC(=N)N)C(=O)NCCCCCC(=O)NCCCCCC(N)=O)[C@@H](C)O)C(C)C)C(C)C [Peptide 1302-4, JLAREYKKIVEKLKRWLRQVLRTLRZZB] (Ac-LAREYKKIVEKLKRWLRQVLRTLR[Ahx][Ahx]-NH2) | 38.4 | 0.8
CC[C@H](C)[C@H](NC(=O)[C@H](CCCCN)NC(=O)[C@H](CCCCN)NC(=O)[C@H](Cc1ccc(O)cc1)NC(=O)[C@H](CCC(=O)O)NC(=O)[C@H](CCCNC(=N)N)NC(=O)[C@H](C)NC(=O)[C@H](CC(C)C)NC(C)=O)C(=O)N[C@H](C(=O)N[C@@H](CCC(=O)O)C(=O)N[C@@H](CCCCN)C(=O)N[C@@H](CC(C)C)C(=O)N[C@@H](CCCCN)C(=O)N[C@@H](CCCNC(=N)N)C(=O)N[C@@H](Cc1c[nH]c2ccccc12)C(=O)N[C@@H](CC(C)C)C(=O)N[C@@H](CCCNC(=N)N)C(=O)N[C@@H](CCC(N)=O)C(=O)N[C@H](C(=O)N[C@@H](CC(C)C)C(=O)N[C@@H](CCCNC(=N)N)C(=O)N[C@H](C(=O)N[C@@H](CC(C)C)C(=O)N[C@@H](CCCNC(=N)N)C(=O)NCCOCCOCCOCCOCCOCCOCCOCCOCCOCCOCCOC(N)=O)[C@@H](C)O)C(C)C)C(C)C [Peptide 1302-5, JLAREYKKIVEKLKRWLRQVLRTLRoB] (Ac-LAREYKKIVEKLKRWLRQVLRTLR-X2) | 102.4 | 0.8
CC[C@H](C)[C@H](NC(=O)[C@H](CCCCN)NC(=O)[C@H](CCCCN)NC(=O)[C@H](Cc1ccc(O)cc1)NC(=O)[C@H](CCC(=O)O)NC(=O)[C@H](CCCNC(=N)N)NC(=O)[C@H](C)NC(=O)[C@H](CC(C)C)NC(C)=O)C(=O)N[C@H](C(=O)N[C@@H](CCC(=O)O)C(=O)N[C@@H](CCCCN)C(=O)N[C@@H](CC(C)C)C(=O)N[C@@H](CCCCN)C(=O)N[C@@H](CCCNC(=N)N)C(=O)N[C@@H](Cc1c[nH]c2ccccc12)C(=O)N[C@@H](CC(C)C)C(=O)N[C@@H](CCCNC(=N)N)C(=O)N[C@@H](CCC(N)=O)C(=O)N[C@H](C(=O)N[C@@H](CC(C)C)C(=O)N[C@@H](CCCNC(=N)N)C(=O)N[C@H](C(=O)N[C@@H](CC(C)C)C(=O)N[C@@H](CCCNC(=N)N)C(=O)NCCCCCC(N)=O)[C@@H](C)O)C(C)C)C(C)C [Peptide 1302-6, JLAREYKKIVEKLKRWLRQVLRTLRZB] (Ac-LAREYKKIVEKLKRWLRQVLRTLR[Ahx]-NH2) | 38.4 | 0.6
CC[C@H](C)[C@H](NC(=O)[C@H](CCCCN)NC(=O)[C@H](CCCCN)NC(=O)[C@H](Cc1ccc(O)cc1)NC(=O)[C@H](CCC(=O)O)NC(=O)[C@H](CCCNC(=N)N)NC(=O)[C@H](C)NC(=O)[C@H](CC(C)C)NC(=O)OCCOCCOCCOCCOCCOCCOCCOCCOCCOCCOCCN)C(=O)N[C@H](C(=O)N[C@@H](CCC(=O)O)C(=O)N[C@@H](CCCCN)C(=O)N[C@@H](CC(C)C)C(=O)N[C@@H](CCCCN)C(=O)N[C@@H](CCCNC(=N)N)C(=O)N[C@@H](Cc1c[nH]c2ccccc12)C(=O)N[C@@H](CC(C)C)C(=O)N[C@@H](CCCNC(=N)N)C(=O)N[C@@H](CCC(N)=O)C(=O)N[C@H](C(=O)N[C@@H](CC(C)C)C(=O)N[C@@H](CCCNC(=N)N)C(=O)N[C@H](C(=O)N[C@@H](CC(C)C)C(=O)N[C@@H](CCCNC(=N)N)C(N)=O)[C@@H](C)O)C(C)C)C(C)C [Peptide 1302-7, oLAREYKKIVEKLKRWLRQVLRTLRB] (X1-LAREYKKIVEKLKRWLRQVLRTLR-NH2; N-terminus assumed) | 102.4 | 1.6
CCCCCC(=O)N[C@@H](CC(C)C)C(=O)N[C@@H](C)C(=O)N[C@@H](CCCNC(=N)N)C(=O)N[C@@H](CCC(=O)O)C(=O)N[C@@H](Cc1ccc(O)cc1)C(=O)N[C@@H](CCCCN)C(=O)N[C@@H](CCCCN)C(=O)N[C@H](C(=O)N[C@H](C(=O)N[C@@H](CCC(=O)O)C(=O)N[C@@H](CCCCN)C(=O)N[C@@H](CC(C)C)C(=O)N[C@@H](CCCCN)C(=O)N[C@@H](CCCNC(=N)N)C(=O)N[C@@H](Cc1c[nH]c2ccccc12)C(=O)N[C@@H](CC(C)C)C(=O)N[C@@H](CCCNC(=N)N)C(=O)N[C@@H](CCC(N)=O)C(=O)N[C@H](C(=O)N[C@@H](CC(C)C)C(=O)N[C@@H](CCCNC(=N)N)C(=O)N[C@H](C(=O)N[C@@H](CC(C)C)C(=O)N[C@@H](CCCNC(=N)N)C(N)=O)[C@@H](C)O)C(C)C)C(C)C)[C@@H](C)CC [Peptide 1302-8, bLAREYKKIVEKLKRWLRQVLRTLRB] (Hexanoyl-LAREYKKIVEKLKRWLRQVLRTLR-NH2) | 102.4 | 1.2
